Measured values from PubChem BioAssay AID504934 (The Scripps Research Institute Molecular Screening Center, 2011).
The source made the active and inactive calls. No rule for the calls is given here.

What was measured:
Test in all cases: PubChem AID 504934
CAR = details: nuclear receptor panel Gal4 luciferase reporter, at 10 µM
[1] = biological target: COUP transcription factor 2 (Homo sapiens) (UniProt P24468); details: nuclear receptor panel Gal4 luciferase reporter, Coup-TF2, at 10 µM
EAR-2 (COUP-TF3) = details: nuclear receptor panel Gal4 luciferase reporter, at 10 µM
ERRa = details: nuclear receptor panel Gal4 luciferase reporter, at 10 µM
ERRb = details: nuclear receptor panel Gal4 luciferase reporter, at 10 µM
ERRg = details: nuclear receptor panel Gal4 luciferase reporter, at 10 µM
[2] = biological target: Estrogen receptor (Homo sapiens) (UniProt P03372); details: nuclear receptor panel Gal4 luciferase reporter, ESR1 (ESRA; Era), at 10 µM
Sequence of Estrogen receptor (Homo sapiens) (P03372 whole entry, looked up, the tested form may be a part): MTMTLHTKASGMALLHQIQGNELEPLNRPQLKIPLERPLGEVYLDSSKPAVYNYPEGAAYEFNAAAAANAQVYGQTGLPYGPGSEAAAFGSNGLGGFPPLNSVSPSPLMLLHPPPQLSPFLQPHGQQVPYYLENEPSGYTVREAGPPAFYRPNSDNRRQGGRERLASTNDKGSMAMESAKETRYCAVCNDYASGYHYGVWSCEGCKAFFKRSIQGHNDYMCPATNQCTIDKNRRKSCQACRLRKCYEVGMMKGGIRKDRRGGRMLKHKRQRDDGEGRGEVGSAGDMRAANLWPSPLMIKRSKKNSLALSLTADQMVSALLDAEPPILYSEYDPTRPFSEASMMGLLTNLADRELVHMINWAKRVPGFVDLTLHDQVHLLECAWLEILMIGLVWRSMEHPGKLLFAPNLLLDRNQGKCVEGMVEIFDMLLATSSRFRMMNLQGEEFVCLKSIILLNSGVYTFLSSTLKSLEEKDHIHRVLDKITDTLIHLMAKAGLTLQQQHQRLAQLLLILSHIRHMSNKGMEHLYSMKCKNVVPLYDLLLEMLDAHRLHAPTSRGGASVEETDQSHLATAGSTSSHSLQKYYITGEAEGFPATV

[3] = biological target: Estrogen receptor beta (Homo sapiens) (UniProt Q92731); details: nuclear receptor panel Gal4 luciferase reporter, Erb (ESR2), at 10 µM
Sequence of Estrogen receptor beta (Homo sapiens) (Q92731 whole entry, looked up, the tested form may be a part): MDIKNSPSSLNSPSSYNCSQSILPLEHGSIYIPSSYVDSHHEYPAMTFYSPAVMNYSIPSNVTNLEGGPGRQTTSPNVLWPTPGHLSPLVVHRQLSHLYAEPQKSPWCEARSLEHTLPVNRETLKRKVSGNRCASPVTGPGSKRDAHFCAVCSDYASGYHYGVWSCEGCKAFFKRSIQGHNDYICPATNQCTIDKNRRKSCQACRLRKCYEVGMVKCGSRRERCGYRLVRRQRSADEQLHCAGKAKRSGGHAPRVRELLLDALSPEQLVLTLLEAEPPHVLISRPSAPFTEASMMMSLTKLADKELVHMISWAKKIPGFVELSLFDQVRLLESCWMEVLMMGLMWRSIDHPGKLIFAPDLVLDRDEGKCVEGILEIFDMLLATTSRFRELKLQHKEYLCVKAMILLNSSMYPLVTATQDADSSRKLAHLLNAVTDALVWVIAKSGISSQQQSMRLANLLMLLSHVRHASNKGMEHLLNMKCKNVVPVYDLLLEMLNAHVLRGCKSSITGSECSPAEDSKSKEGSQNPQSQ

[4] = biological target: Glucocorticoid receptor (Homo sapiens) (UniProt P04150); details: nuclear receptor panel Gal4 luciferase reporter, GCCR, at 10 µM
Sequence of Glucocorticoid receptor (Homo sapiens) (P04150 whole entry, looked up, the tested form may be a part): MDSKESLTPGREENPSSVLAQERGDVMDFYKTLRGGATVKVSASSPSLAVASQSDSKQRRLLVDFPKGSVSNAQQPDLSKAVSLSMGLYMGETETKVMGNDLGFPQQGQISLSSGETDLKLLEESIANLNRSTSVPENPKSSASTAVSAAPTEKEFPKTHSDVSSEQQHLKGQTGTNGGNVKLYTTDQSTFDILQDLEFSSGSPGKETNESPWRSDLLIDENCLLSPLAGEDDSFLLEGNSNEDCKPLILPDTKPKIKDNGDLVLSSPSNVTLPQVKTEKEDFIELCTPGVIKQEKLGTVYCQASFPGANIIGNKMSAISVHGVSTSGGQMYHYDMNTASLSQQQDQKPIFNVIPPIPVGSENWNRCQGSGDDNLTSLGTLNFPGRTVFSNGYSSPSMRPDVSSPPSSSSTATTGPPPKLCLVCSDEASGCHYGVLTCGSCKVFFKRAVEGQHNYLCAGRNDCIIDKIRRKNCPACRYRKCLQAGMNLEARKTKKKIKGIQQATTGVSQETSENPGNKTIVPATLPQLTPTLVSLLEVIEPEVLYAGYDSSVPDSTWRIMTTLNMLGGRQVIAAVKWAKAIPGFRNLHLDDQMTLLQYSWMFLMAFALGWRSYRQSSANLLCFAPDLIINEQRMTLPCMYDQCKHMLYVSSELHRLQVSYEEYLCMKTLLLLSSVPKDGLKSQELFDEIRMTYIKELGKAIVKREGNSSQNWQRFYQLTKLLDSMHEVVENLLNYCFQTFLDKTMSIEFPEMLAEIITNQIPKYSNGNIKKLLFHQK

MR = details: nuclear receptor panel Gal4 luciferase reporter, at 10 µM
[5] = biological target: Nuclear receptor ROR-gamma (Homo sapiens) (UniProt P51449); details: nuclear receptor panel Gal4 luciferase reporter, RORg, at 10 µM
Sequence of Nuclear receptor ROR-gamma (Homo sapiens) (P51449 whole entry, looked up, the tested form may be a part): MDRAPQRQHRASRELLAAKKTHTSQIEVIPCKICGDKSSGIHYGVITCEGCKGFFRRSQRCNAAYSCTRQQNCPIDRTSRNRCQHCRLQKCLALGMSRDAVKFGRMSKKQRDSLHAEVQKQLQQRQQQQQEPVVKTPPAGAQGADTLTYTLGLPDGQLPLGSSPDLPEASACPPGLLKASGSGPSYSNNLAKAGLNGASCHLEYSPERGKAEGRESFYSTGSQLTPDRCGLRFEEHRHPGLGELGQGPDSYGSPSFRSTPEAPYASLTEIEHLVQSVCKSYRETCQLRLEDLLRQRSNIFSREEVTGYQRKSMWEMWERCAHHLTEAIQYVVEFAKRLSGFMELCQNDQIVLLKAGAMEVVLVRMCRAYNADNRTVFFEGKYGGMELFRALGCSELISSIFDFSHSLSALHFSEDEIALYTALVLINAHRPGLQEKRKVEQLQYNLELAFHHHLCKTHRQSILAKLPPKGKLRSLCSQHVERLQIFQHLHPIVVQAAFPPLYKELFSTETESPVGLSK

[6] = biological target: Nuclear receptor subfamily 0 group B member 1 (Homo sapiens) (UniProt P51843); details: nuclear receptor panel Gal4 luciferase reporter, DAX, at 10 µM
[7] = biological target: Nuclear receptor subfamily 5 group A member 2 (Homo sapiens) (UniProt O00482); details: nuclear receptor panel Gal4 luciferase reporter, LRH1, at 10 µM
Sequence of Nuclear receptor subfamily 5 group A member 2 (Homo sapiens) (O00482 whole entry, looked up, the tested form may be a part): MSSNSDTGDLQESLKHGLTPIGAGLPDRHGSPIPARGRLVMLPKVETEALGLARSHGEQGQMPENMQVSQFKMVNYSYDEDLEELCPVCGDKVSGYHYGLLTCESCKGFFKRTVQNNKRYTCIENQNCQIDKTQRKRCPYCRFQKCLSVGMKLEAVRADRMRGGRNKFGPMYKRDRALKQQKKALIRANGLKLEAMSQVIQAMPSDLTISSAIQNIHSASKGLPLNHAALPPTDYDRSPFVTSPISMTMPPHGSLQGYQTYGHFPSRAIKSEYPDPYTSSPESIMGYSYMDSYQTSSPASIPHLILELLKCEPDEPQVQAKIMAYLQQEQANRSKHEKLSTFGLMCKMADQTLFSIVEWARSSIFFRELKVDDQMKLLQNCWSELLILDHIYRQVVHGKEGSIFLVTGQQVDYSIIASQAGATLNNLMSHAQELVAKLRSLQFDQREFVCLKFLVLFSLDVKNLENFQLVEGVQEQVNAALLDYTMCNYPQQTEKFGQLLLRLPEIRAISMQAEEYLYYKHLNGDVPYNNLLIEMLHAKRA

PGR = details: nuclear receptor panel Gal4 luciferase reporter, at 10 µM
PNR = details: nuclear receptor panel Gal4 luciferase reporter, at 10 µM
RARb = details: nuclear receptor panel Gal4 luciferase reporter, at 10 µM
RXRg = details: nuclear receptor panel Gal4 luciferase reporter, at 10 µM
[8] = biological target: Retinoic acid receptor RXR-alpha (Homo sapiens) (UniProt P19793); details: nuclear receptor panel Gal4 luciferase reporter, RXRa, at 10 µM
Sequence of Retinoic acid receptor RXR-alpha (Homo sapiens) (P19793 whole entry, looked up, the tested form may be a part): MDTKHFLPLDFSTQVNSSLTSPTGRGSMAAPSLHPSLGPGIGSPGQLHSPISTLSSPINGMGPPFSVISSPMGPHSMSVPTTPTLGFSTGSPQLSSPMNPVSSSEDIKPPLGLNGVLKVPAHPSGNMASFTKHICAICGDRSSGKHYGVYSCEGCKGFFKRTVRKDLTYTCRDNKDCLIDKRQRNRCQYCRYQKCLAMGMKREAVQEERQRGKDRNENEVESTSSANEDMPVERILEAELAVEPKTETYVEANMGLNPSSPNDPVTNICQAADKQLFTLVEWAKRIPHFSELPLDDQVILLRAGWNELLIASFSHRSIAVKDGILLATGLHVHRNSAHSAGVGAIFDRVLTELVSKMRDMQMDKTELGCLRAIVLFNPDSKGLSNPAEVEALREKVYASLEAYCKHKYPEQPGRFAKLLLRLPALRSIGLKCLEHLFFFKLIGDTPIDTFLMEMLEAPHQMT

[9] = biological target: Retinoic acid receptor RXR-beta (Homo sapiens) (UniProt P28702); details: nuclear receptor panel Gal4 luciferase reporter, RXRb, at 10 µM
Sequence of Retinoic acid receptor RXR-beta (Homo sapiens) (P28702 whole entry, looked up, the tested form may be a part): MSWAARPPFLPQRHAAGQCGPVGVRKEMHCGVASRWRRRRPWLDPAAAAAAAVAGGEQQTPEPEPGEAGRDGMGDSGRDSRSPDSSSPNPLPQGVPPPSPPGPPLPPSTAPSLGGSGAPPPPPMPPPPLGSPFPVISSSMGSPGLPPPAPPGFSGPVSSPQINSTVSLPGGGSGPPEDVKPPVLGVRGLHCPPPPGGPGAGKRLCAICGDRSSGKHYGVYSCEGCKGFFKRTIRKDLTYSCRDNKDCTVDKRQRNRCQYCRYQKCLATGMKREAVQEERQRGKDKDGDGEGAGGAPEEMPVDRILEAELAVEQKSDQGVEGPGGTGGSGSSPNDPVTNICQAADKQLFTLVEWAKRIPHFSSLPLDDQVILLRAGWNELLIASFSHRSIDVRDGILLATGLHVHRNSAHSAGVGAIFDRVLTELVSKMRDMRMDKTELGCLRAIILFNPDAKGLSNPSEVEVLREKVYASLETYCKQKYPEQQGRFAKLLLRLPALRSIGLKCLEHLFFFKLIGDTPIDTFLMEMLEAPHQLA

[10] = biological target: Steroidogenic factor 1 (Homo sapiens) (UniProt Q13285); details: nuclear receptor panel Gal4 luciferase reporter, SF1, at 10 µM
Sequence of Steroidogenic factor 1 (Homo sapiens) (Q13285 whole entry, looked up, the tested form may be a part): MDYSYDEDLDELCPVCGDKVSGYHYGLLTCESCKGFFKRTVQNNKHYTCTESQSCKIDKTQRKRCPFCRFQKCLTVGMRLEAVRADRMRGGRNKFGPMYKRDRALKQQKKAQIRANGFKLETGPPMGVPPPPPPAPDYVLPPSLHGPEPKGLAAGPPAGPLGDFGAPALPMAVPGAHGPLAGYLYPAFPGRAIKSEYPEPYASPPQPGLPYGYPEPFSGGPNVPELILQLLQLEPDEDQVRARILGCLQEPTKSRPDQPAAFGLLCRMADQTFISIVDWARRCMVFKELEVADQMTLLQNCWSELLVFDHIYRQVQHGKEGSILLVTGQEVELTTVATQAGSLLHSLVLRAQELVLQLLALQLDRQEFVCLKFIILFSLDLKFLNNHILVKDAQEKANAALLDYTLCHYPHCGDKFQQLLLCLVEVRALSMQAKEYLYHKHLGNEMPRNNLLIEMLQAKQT

TLX = details: nuclear receptor panel Gal4 luciferase reporter, at 10 µM
VDR = details: nuclear receptor panel Gal4 luciferase reporter, at 10 µM

Sequence of COUP transcription factor 2 (Homo sapiens) (P24468 whole entry, looked up, the tested form may be a part): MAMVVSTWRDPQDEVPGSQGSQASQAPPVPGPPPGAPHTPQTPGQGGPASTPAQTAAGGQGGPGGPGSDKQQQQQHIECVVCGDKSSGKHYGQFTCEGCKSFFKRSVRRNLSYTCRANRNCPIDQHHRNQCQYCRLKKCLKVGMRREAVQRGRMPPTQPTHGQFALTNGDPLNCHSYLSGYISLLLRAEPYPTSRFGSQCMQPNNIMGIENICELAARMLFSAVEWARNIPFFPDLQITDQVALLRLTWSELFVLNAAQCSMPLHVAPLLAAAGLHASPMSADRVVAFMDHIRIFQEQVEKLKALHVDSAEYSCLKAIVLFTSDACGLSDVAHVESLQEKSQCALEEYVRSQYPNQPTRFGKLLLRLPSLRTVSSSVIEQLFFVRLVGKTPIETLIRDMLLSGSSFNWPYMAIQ

- fold change (CAR): 0.38
- fold change [1]: 1.04 (inactive)
- fold change (EAR-2 (COUP-TF3)): 1 (inactive)
- fold change (ERRa): 1.34
- fold change (ERRb): 1.02 (inactive)
- fold change (ERRg): 0.49
- fold change [2]: 0.61
- fold change [3]: 0.56
- fold change [4]: 1.13 (inactive)
- fold change (MR): 1.41
- fold change [5]: 0.52
- fold change [6]: 1.03 (inactive)
- fold change [7]: 0.88 (inactive)
- fold change (PGR): 0.97 (inactive)
- fold change (PNR): 0.72
- fold change (RARb): 0.54
- fold change (RXRg): 0.81 (inactive)
- fold change [8]: 0.75
- fold change [9]: 0.78
- fold change [10]: 0.71
- fold change (TLX): 0.88 (inactive)
- fold change (VDR): 0.83 (inactive)
Structure (SMILES): O=c1cc(N2CCN(c3cccc(Cl)c3)CC2)[nH]c(=O)n1C1CCCCC1
